# Measurements as given in patent US20260060960A1, “GAMMA-SECRETASE INHIBITORS FOR USE IN THE TREATMENT OF INHERITED EPIDERMOLYSIS BULLOSA” (OSPEDALE PEDIATRICO BAMBINO GESU', priority 2022, published 2026).
# Assays:
# Format in all cases: cell-based, human
# [1] = tested on: primary fibroblast strains from healthy controls (NH-FBs); assay: MTT viability/proliferation assay on primary fibroblasts from healthy controls
# Text: 3-(4,5-dimethyl-2-thiazolyl)-2,5-diphenyl-2H-tetrazolium bromide (MTT) assay showing the impact of DAPT and PF-03084014 treatment on viability and proliferation rate of three primary fibroblast strains from healthy controls (NH-FBs). Absorbance values (Abs) were converted in percentage by using the following formula: AbsDAPT or PF-03084014×100/AbsREFERENCE WELLS. Data are presented as mean±standard deviation (SD) of at least eight technical replicates per condition. Cells treated with the vehicle DMSO (Panel A), and cells analyzed 24 h after seeding (T0) (Panel B) were considered as reference wells. NH-FBs were growth in DMEM medium containing 10% fetal bovine serum (FBS). […] Based on the results, it was chosen to use GSIs at 20 μM (black arrows) as it was the minimal drug concentration inducing a reduction of cell proliferation after 24 h of treatment. (Panel C) Immunoblotting analysis showing the protein levels of the cleaved and biologically active form of NOTCH1 receptor (N1-ICD, NOTCH1 intracellular domain) in nuclear extracts of primary fibroblasts from RDEB patients (RDEB-FBs, n=2) treated for 24 h with DAPT and PF-03084014 at different doses, ranging from 0.1 to 20 μM. Cells treated with the vehicle dimethyl sulfoxide (DMSO) were used as control. The reduced nuclear localization of N1-ICD indicates Notch pathway inhibition. […] Lamin B1 (LMNB1) and glyceraldehyde-3-phosphate dehydrogenase (GAPDH) served as loading controls for the nuclear and cytoplasmic protein fractions, respectively. **P-value <0.01, ***P<0.001.
# GSIs halt the processing of Notch receptor, and, in turn, play a role as indirect inhibitors of Notch signaling cascade. Following their reconstitution at 10 mM in dimethyl sulfoxide (DMSO), GSI aliquots were stored at −20° C. until use, avoiding freeze-thaw cycles. GSI treatment was performed in DMEM containing 10% FBS, unless otherwise specified. According to previous reports, RDEB-FBs were serum-starved overnight in DMEM containing BSA prior to be treated with GSIs. Cells treated with the vehicle DMSO were used as controls. GSIs were used at different concentrations ranging from 1 to 20 μM depending on the assay. […]
# Proliferation rate was assessed by 3-(4,5-dimethyl-2-thiazolyl)-2,5-diphenyl-2H-tetrazolium bromide (MTT) assay, following the manufacturer's protocol. […] Thereafter, cells were lysed in DMSO to dissolve formazan crystals and absorbance values were recorded at 560 nm with an Infinite F50 microplate reader (Tecan, Mannedorf, Switzerland). Values recorded 24 h after cell seeding, before GSI stimulation (TO) were used as reference. […]
# [2] = tested on: TGF-β1 secreted by RDEB-FBs; assay: TGF-β1 ELISA on conditioned media of RDEB fibroblasts; conditions: 20 μM, 48 h; for acid-activated TGF-β1 in conditioned media: three RDEB-FB strains, mean±SD
# Method: Human TGF-β1 Quantikine ELISA Kit (R&D Systems, Minneapolis, MN, USA) was used to measure the amount of TGF-β1 (pg/mL) in serum-free conditioned media of three RDEB-FB strains, treated or not with PF-03084014 and DAPT at 1 or 20 μM for 48 h. DMSO-treated cells were used as controls. TGF-β1 Quantikine ELISA Kit was performed as per manufacturer's instructions. Samples were assayed in duplicate for each experimental condition. In order to detect both the latent precursor and the active form without latency-associated peptide cell supernatants were subjected to acid activation prior to be analyzed. Absorbance values were recorded at 455 nm with an Infinite F50 microplate reader (Tecan, Männedorf, Switzerland) and analyzed by employing the GraphPad Prism 8.2 version (GraphPad Software Inc., San Diego, CA, USA).
# [3] = tested on: primary fibroblasts from RDEB patients (RDEB-FBs); assay: Collagen lattice contraction (CLC) assay; conditions: for cell contractility (collagen lattice contraction) / contractility (collagen lattice contraction): RDEB-FBs, 20 μM, 48 h; for contractility (collagen lattice contraction): presence of TGF-β1 2 ng/mL
# Method: RDEB-FBs (5×10^5 cells) were mixed in a collagen buffer and seeded into 12-well plates as previously described. After gelation, fibroblast-populated collagen lattices were detached from the wells and left floating. RDEB-FBs were treated with 20 μM of DAPT and PF-03804014 in DMEM containing 0.1% BSA, in the presence or absence of TGF-β1 at 2 ng/mL, as contraction booster. JAG1-silenced RDEB-FBs were embedded in collagen lattices 24 h after siRNA transfection. In both cases, images were acquired with ChemiDoc™ XRS+ System (Bio-Rad, Hercules, CA, USA) at the detachment of collagen lattices from the wells (time 0, TO) and after 48 h. Gel areas were measured by ImageJ software and photos at TO were used as references.
# [4] = tested on: α-SMA, CNN1, TAGLN, JAG1, HES1, POSTN, Pri-miR-143/145 mRNA; assay: Real-time PCR of contractile/fibrotic markers in RDEB fibroblasts; conditions: RDEB-FBs
# Text: Total was extracted by TRIzol (Thermo Fisher Scientific) by monolayer fibroblast cultures, following manufacturer's instructions. RNA was reverse transcribed and amplified by using Power SYBR Green RNA-to-Ct 1-Step Kit (Thermo Fisher Scientific) on QuantStudio™ 7 Pro Real-Time PCR System (Thermo Fisher Scientific). Primer pairs used in this study are listed in Table 2: ACTA2, actin alpha 2, smooth muscle; CNN1, calponin; COL1A1, collagen type I alpha 1 chain; GAPDH, glyceraldehyde-3-phosphate dehydrogenase; HES1, hes family bHLH transcription factor 1; JAG1, jagged canonical Notch ligand 1; NOTCH1, notch receptor 1; POSTN, periostin; TAGLN, transgelin.
# Relative mRNA expression levels were measured by the 2−ΔΔCT method. Hypoxanthine phosphoribosyltransferase 1 (HPRT1) was used as housekeeping gene to normalize mRNA expression levels.
SMILES,"proliferation rate (MTT) ([1]; 20 and 40 μM, 48 h, vs DMSO)",acid-activated TGF-β1 in conditioned media [2],cell contractility (collagen lattice contraction) ([3]; absence of TGF-β1),contractility (collagen lattice contraction) [3],cell viability (MTT) compared to cells before GSI treatment (T0) ([1]; 40 μM),fibroblast proliferation / cytotoxicity (MTT) ([1]; 5-20 μM),"effects on proliferation rate (MTT) ([1]; 20 and 40 μM at 24 h, 5 and 10 μM at 48 h, vs DMSO)",reduction of TGF-β1 released in culture media ([2]; vs cells treated with DMSO and DAPT),"mRNA levels of HES1, periostin and Pri-miR-143/145 [4]",mRNA levels of contractile/fibrotic markers (real-time PCR) ([4]; basal conditions and presence of TGF-β1),"contractile properties (collagen lattice contraction) in strain RDEB-FB1 ([3]; RDEB-FB1, 20 μM, absence of TGF-β1)"
"C[C@H](NC(=O)Cc1cc(F)cc(F)c1)C(=O)N[C@H](C(=O)OC(C)(C)C)c1ccccc1 [DAPT, N—[N-(3,5-difluorophenacetyl)-L-alanyl]-S-phenylglycine t-butyl ester]",slight but statistically significant reduction of proliferation rate,250.4 ± 97.3 pg/mL,didn't exhibit significant variations,"significant, although less conspicuous",–,–,–,–,–,–,–
"CCC[C@H](N[C@H]1CCc2cc(F)cc(F)c2C1)C(=O)Nc1cn(C(C)(C)CNCC(C)(C)C)cn1 [PF-03084014, (S)-2-((S)-5,7-difluoro-1,2,3,4-tetrahydronaphthalen-3-ylamino)-N-(1-(2-methyl-1-(neopentylamino)propan-2-yl)-1H-imidazol-4-yl)pentanamide]",–,99.6 ± 40.8 pg/mL,modest but consistent in all RDEB-FB strains analyzed,marked reduction of contractility,reduction of cell viability,"affected fibroblast proliferation in a time- and dose-dependent manner, in the absence of overt cytotoxicity","observed after 24 h of treatment, and became more evident after 48 h of treatment, even at low doses (5 and 10 μM)",up to 60%,context-dependent downregulation,"down-regulation of a selection of contractile/fibrotic markers, including α-SMA, CNN1, TAGLN and JAG1",striking inhibition of contractile properties
